Experimental findings from ChEMBL document CHEMBL5465560, “Selectivity Literature for EUbOPEN Chemogenomic Library” (2024) are described below.

For assay [1], the target named is T1, Calcium/calmodulin-dependent protein kinase type IV (Homo sapiens) (UniProt Q16566).
T1 sequence (whole entry): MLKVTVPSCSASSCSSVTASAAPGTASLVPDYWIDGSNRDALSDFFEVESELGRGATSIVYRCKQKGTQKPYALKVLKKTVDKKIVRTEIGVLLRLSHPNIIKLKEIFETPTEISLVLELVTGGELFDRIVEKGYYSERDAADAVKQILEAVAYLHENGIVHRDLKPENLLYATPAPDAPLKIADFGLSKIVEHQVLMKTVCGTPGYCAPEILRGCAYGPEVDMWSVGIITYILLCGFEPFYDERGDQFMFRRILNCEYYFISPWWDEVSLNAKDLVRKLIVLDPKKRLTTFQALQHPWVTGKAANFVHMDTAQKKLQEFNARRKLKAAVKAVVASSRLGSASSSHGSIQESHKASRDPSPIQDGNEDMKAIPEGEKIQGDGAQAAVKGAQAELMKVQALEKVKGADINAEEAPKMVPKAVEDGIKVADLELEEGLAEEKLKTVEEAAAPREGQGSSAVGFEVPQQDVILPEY
Briefly: Selectivity interaction (Kinase panel (Z-LYTE Assay)) EUB0001632a CAMK4. The note with it: at 10 µM.

Assay [2] concerns the target T2, Serine/threonine-protein kinase D3 (Homo sapiens) (UniProt O94806).
T2 sequence (whole entry): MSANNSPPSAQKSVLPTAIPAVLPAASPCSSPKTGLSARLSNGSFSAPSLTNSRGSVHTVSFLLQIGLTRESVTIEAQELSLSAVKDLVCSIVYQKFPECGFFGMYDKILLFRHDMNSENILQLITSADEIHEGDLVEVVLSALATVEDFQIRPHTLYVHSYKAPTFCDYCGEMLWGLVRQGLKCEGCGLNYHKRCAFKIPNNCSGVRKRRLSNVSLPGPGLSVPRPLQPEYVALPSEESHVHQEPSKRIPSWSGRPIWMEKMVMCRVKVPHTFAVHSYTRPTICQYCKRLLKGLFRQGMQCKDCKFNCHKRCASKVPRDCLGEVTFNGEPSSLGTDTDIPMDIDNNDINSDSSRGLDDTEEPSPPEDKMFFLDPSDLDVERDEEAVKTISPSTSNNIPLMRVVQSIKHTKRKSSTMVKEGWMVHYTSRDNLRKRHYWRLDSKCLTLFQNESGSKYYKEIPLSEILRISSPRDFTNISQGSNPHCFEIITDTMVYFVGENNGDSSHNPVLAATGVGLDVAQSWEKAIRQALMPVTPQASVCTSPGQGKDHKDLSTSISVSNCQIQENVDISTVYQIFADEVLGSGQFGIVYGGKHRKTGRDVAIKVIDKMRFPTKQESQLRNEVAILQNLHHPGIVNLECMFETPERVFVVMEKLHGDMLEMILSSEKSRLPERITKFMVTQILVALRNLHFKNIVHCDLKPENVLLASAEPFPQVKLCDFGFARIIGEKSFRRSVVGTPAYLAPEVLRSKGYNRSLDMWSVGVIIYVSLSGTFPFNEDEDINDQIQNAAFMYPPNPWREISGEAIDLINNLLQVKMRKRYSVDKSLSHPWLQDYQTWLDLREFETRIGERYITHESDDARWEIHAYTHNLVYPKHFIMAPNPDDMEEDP
As to the kind of experiment: Selectivity interaction (Kinase panel (Z-LYTE Assay)) EUB0001632a PRKD3. The conditions noted are these: at 10 µM.

Assay [3] concerns the target Activin receptor type-2B (Homo sapiens) (UniProt Q13705). Briefly: Selectivity interaction (KinomeScan (DiscoverX)) EUB0000607a ACVR2B. The conditions noted are these: at 10 µM.
Assay [4] has as its target T3, Inhibitor of nuclear factor kappa-B kinase subunit beta (Homo sapiens) (UniProt O14920).
T3 sequence (whole entry): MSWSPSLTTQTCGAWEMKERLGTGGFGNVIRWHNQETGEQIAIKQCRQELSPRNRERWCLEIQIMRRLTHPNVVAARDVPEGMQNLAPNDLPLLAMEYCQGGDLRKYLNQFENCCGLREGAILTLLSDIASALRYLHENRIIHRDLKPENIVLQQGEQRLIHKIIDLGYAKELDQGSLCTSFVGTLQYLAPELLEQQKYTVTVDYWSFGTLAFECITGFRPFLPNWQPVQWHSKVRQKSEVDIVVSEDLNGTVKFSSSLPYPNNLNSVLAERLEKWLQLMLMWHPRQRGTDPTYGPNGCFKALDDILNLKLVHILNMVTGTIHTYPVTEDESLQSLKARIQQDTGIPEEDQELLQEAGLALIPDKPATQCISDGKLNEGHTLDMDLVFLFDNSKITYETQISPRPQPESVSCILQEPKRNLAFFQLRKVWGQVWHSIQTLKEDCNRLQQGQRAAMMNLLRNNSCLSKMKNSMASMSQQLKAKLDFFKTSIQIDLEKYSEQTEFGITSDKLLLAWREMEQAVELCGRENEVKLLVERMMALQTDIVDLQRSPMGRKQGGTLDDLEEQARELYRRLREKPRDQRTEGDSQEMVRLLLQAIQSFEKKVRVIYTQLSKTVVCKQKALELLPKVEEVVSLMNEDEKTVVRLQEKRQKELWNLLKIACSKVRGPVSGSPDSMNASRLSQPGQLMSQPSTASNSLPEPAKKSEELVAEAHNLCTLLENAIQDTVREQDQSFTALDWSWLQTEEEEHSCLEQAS

In assay [5] the target is Mitogen-activated protein kinase kinase kinase kinase 4 (Homo sapiens, UniProt O95819). Briefly: Selectivity interaction (ProQinase) EUB0000171b MAP4K4.
Chain of Mitogen-activated protein kinase kinase kinase kinase 4 (O95819 2-1239 limits assumed): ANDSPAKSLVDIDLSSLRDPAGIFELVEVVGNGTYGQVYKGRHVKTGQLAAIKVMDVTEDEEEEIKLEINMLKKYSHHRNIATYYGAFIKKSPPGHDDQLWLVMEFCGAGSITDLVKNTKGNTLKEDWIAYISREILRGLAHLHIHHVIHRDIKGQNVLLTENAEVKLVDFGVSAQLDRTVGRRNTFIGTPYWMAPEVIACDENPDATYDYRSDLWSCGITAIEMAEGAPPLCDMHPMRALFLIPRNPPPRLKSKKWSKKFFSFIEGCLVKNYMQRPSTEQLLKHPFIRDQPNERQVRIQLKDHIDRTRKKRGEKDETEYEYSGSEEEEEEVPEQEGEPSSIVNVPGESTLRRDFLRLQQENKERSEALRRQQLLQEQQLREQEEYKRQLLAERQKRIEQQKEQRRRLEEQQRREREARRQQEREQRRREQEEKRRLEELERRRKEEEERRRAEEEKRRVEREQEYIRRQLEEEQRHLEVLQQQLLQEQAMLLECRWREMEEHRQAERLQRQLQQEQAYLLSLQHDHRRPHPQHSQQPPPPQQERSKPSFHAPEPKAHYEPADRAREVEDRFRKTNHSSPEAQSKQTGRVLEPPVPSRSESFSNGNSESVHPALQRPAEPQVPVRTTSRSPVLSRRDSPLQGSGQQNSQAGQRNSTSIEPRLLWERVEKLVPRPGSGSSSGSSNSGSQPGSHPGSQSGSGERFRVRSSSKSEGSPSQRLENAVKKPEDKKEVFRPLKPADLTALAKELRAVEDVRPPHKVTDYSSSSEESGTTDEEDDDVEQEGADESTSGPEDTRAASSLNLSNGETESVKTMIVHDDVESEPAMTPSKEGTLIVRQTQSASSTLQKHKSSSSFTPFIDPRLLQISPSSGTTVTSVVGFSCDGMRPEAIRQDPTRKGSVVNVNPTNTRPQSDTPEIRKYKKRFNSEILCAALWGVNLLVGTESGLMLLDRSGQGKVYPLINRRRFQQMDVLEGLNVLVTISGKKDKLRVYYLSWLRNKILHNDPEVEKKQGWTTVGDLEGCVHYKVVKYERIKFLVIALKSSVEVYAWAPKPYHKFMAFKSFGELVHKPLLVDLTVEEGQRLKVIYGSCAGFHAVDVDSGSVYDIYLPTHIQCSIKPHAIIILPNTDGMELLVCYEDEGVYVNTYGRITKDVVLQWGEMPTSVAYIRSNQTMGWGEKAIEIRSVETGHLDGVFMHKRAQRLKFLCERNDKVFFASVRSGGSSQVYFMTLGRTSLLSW
In assay [6] the test system is Tyrosine-protein kinase ABL1 (Homo sapiens), P00519 [G250E]. Briefly: (§1) Selectivity interaction (ProQinase) EUB0000171b ABL1.
In assay [7] the test system is Tyrosine-protein kinase ABL1 (Homo sapiens), P00519 [T315I]. The description is as §1.
Assay [8] deals with Tyrosine-protein kinase ABL1 (Homo sapiens, UniProt P00519). The description is as §1.
The subject of assay [9] is Tyrosine-protein kinase ABL1 (Homo sapiens), P00519 [Q252H]. Described as §1.
Assay [10] concerns Tyrosine-protein kinase ABL1 (Homo sapiens), P00519 [H396P]. The assay is described as §1.
The subject of assay [11] is Tyrosine-protein kinase ABL1 (Homo sapiens), P00519 [M351T]. The description is as §1.
In assay [12] the test system is Tyrosine-protein kinase ABL1 (Homo sapiens), P00519 [Y253F]. Described as §1.
The subject of assay [13] is Tyrosine-protein kinase ABL1 (Homo sapiens), P00519 [E255K]. Described as §1.
Assay [14] deals with Tyrosine-protein kinase ABL1 (Homo sapiens), P00519 [F317I]. The description is as §1.
Assay [15] has as its target Homeodomain-interacting protein kinase 2 (Homo sapiens, UniProt Q9H2X6). Briefly: Selectivity interaction (Upstate Kinase Profiler service (Millipore)) EUB0000056c HIPK2. The conditions noted are these: at 1 µM.

Chain of Homeodomain-interacting protein kinase 2 (Q9H2X6 whole entry, looked up): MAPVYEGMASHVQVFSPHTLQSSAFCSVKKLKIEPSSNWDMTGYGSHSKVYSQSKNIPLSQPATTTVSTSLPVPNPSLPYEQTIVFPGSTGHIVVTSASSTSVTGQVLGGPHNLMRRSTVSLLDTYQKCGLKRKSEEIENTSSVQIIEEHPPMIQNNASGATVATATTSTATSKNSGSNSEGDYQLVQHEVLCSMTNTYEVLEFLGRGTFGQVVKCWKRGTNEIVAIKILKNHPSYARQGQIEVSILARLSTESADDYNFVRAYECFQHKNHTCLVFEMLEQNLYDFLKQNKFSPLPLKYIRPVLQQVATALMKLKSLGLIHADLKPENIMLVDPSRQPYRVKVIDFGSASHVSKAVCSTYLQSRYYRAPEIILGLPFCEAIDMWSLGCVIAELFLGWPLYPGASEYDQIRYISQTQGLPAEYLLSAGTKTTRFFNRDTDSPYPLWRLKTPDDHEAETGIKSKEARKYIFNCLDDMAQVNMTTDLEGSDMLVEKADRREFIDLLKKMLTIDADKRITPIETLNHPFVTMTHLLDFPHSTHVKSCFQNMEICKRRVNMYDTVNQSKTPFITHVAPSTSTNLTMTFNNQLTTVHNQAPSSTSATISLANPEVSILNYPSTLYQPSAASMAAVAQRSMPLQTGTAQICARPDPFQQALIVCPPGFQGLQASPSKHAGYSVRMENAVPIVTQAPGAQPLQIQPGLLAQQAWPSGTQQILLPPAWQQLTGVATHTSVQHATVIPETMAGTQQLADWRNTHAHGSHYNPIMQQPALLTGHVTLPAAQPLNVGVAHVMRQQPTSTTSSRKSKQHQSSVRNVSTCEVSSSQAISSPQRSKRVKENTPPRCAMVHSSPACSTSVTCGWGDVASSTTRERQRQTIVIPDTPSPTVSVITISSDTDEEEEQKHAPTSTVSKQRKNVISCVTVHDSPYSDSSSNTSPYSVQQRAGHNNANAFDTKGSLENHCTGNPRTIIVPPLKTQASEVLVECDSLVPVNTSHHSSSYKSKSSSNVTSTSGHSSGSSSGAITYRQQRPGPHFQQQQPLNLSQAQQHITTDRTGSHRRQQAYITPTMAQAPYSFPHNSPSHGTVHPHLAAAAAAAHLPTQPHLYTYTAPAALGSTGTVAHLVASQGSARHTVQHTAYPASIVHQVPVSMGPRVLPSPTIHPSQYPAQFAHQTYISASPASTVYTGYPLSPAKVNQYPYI
Chain of Activin receptor type-2B (Homo sapiens) (Q13705 whole entry): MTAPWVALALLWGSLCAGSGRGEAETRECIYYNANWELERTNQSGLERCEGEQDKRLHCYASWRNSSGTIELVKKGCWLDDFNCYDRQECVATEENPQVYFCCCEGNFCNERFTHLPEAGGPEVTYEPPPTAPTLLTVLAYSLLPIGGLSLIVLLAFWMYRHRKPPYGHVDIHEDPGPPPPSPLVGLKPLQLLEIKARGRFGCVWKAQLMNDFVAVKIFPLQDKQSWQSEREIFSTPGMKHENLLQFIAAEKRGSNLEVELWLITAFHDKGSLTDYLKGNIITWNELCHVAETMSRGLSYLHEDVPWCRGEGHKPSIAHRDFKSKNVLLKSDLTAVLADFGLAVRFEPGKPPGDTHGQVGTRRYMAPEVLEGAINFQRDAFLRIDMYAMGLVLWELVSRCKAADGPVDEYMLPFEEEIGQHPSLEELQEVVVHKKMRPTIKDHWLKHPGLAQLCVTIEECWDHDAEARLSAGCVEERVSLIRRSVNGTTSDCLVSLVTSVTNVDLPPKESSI

Regarding `Cn1cc(-n2cnc3c(NCc4nc5cc(Cl)c(Cl)cc5[nH]4)nc(N4CCOCC4)nc32)cn1`, the % of control is -4.99% in assay [1] and 1.79% in assay [2].

As for `CNC(=O)Nc1ccc(-c2nc(N3CC4CCC(C3)O4)c3cnn(C4CCC5(CC4)OCCO5)c3n2)cc1`, in assay [3], the % of control is 77%.

In the case of `Cc1cnc(Nc2ccc(F)cc2Cl)nc1-c1c[nH]c(C(=O)N[C@H](CO)c2cccc(Cl)c2)c1`, the % of inhibition in assay [4] stood at 8%.

In the case of `C=CC(=O)Nc1cccc(C(=O)Nc2ccc(Nc3cc(-c4[nH]c(SC)nc4C)ccn3)cc2)c1`, the % of control in [5] (at 1 µM) turned out to be 79%; in [5] (at 5 µM), 55%; in assay [6] (at 1 µM), 88%; in [6] (at 5 µM), 89%; in assay [7] (at 1 µM), 91%; in [7] (at 5 µM), 82%. The % of control came to 96% in [8] (at 1 µM); 71% in assay [8] (at 5 µM); 96% in assay [9] (at 1 µM); 65% in assay [9] (at 5 µM); 93% in [10] (at 1 µM); 71% in assay [10] (at 5 µM). Also, the % of control in [11] (at 1 µM) was 87%; in [11] (at 5 µM) it was 61%; in assay [12] (at 1 µM), 85%; in [12] (at 5 µM) it was 64%; in [13] (at 1 µM), 94%; in [13] (at 5 µM) it was 88%. Moreover, the % of control was determined as 102% in assay [14] (at 1 µM) and 82% in assay [14] (at 5 µM).

In turn, `Cc1ccc(-c2ccc3c(ccc4sc5c(c43)NC[C@@H](C)NC5=O)n2)cn1` yielded a % of inhibition in assay [15] of 2%.
